Data: article PMC11191402, “High-Affinity NIR-Fluorescent Inhibitors for Tumor Imaging via Carbonic Anhydrase IX” (Bioconjugate Chemistry, 2024)

How the values were obtained:
[1] = molecular target: T1, CAIX expressed on cell membranes of HeLa cells (Homo sapiens, UniProt Q16790); experiment: Fluorescence microscopy staining of live HeLa cells; format: cell-based; settings: 250 nM compound; pCMV-CAIX-transfected cells, normoxia
T1 construct: an open reading frame for the full-length CAIX protein (1–459 amino acids) without a tag; expressed in transfected cells; host or cells: HeLa cells transfected with pCMV-CAIX (TurboFect), normoxia
Description: Live HeLa cell culture was used for visualization of the NIR-fluorescent compound binding to CAIX expressed on cell membranes (Figures 3 and S2). […] Hypoxic conditions were insufficient for CAIX-specific fluorescence detection (Figure S3). Transfected cells expressed 10-fold more CAIX protein than cells grown under hypoxia, as determined by dosing the fluorescein-containing compound GZ19-32. […] We should point out that microphotographs in Figures 3 and S2 were taken at different exposure times to ensure good visualization quality. Nevertheless, all four compounds were suitable for direct visualization of CAIX expressed on transfected cell membranes.
For visualization of CAIX in live cells, HeLa cells were seeded in 12-well plates, and the next day they were transfected with the pCMV-CAIX plasmid to induce CAIX expression under normoxia. The TurboFect Transfection Reagent (Thermo Fisher) was used for this purpose according to manufacturer’s directions. Cells were stained and visualized next day after transfection. Nontransfected cells, grown under normoxia, were used as a control. For the induction of CAIX expression without transfection, cells were cultured under hypoxia for 3 days.
For cell imaging, live cells were incubated with the recombinant monoclonal antibody to CAIX (M75) (Absolute Antibody, #Ab00414–1.1) in the CO2 incubator for 30 min. The antibody stock solution (1 mg/mL) was used at a dilution of 1:150 in FluoroBright (FB)(Thermo Fisher) medium. After washing (3 × 5 min with DMEM in RT, gentle rock), cells were incubated with secondary Alexa Fluor 488 goat antimouse antibodies (2 mg/mL, Thermo Fisher), at a dilution of 1:200 in FB, in a CO2 incubator for 30 min. After washing (3 × 5 min with DMEM in RT and 2 × 1 min with PBS), cells were incubated with NIR-fluorescent inhibitors ([…] in PBS) in a CO2 incubator for 5–8 min. After washing (2 min + 2 × 1 min with PBS), PBS was replaced by FB, and 15 μL of NucBlue Live Cell Stain ReadyProbes reagent (Thermo Fisher) was added per well. After 5 min, cells were observed and photographed using an automated fluorescence microscope EVOS FL Auto (Thermo Fisher).

[2] = molecular target: T2, human recombinant CAVB (Homo sapiens, UniProt Q9Y2D0); set-up: method as in PMID 36271018; settings: FTSA, 37 °C, pH 7.0; cited from earlier work
T2 construct: Most isozymes were truncated, and only the catalytic domains of the proteins were produced; made in house; host or cells: bacterial expression system
T2 sequence (Q9Y2D0 37-296 limits assumed): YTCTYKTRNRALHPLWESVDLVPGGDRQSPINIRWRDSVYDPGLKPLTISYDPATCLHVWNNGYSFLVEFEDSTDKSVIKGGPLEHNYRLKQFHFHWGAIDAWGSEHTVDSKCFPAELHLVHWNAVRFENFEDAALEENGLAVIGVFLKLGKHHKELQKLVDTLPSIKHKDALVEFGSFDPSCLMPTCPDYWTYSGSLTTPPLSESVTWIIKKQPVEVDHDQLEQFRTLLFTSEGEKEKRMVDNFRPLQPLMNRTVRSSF

[3] = molecular target: T3, human recombinant CAXIV (Homo sapiens, UniProt Q9ULX7); set-up: method as in PMID 36271018; settings: FTSA, 37 °C, pH 7.0; cited from earlier work
T3 construct: Most isozymes were truncated, and only the catalytic domains of the proteins were produced; made in house; host or cells: bacterial expression system
T3 sequence (Q9ULX7 20-278 limits assumed): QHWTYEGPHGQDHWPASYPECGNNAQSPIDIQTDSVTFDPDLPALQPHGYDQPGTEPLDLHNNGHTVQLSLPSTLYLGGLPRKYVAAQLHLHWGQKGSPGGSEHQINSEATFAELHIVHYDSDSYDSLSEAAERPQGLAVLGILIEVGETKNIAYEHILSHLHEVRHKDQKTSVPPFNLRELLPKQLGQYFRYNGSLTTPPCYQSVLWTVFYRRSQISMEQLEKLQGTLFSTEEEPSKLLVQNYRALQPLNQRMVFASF

[4] = molecular target: T4, human recombinant CAVA (Homo sapiens, UniProt P35218); set-up: method as in PMID 36271018; settings: FTSA, 37 °C, pH 7.0; cited from earlier work
T4 construct: Most isozymes were truncated, and only the catalytic domains of the proteins were produced; made in house; host or cells: bacterial expression system
T4 sequence (P35218 39-296 limits assumed): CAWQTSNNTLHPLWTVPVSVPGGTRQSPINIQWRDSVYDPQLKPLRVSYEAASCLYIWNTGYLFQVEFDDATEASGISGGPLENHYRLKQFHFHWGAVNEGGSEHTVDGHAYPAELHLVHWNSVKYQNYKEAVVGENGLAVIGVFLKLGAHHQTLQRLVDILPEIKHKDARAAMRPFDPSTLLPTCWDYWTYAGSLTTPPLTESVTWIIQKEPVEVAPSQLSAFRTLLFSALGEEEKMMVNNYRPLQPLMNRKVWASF

[5] = molecular target: T5, human recombinant CAII (Homo sapiens, UniProt P00918); set-up: method as in PMID 36271018; settings: FTSA, 37 °C, pH 7.0; cited from earlier work
T5 construct: made in house; host or cells: bacterial expression system

[6] = molecular target: T6, human recombinant CAVII (Homo sapiens, UniProt P43166); set-up: method as in PMID 36271018; settings: FTSA, 37 °C, pH 7.0; cited from earlier work
T6 construct: made in house; host or cells: bacterial expression system
T6 sequence (P43166 whole entry): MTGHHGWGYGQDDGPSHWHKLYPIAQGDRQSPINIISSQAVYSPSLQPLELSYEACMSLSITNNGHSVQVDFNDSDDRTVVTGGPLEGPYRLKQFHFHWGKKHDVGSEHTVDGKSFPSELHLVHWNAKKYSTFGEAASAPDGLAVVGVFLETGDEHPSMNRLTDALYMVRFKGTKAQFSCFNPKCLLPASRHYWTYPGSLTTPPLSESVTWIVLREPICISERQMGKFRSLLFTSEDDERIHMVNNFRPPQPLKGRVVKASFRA

[7] = molecular target: T7, human recombinant CAIV (Homo sapiens, UniProt P22748); set-up: method as in PMID 36271018; settings: FTSA, 37 °C, pH 7.0; cited from earlier work
T7 construct: Most isozymes were truncated, and only the catalytic domains of the proteins were produced; made in house; host or cells: bacterial expression system
T7 sequence (P22748 21-285 limits assumed): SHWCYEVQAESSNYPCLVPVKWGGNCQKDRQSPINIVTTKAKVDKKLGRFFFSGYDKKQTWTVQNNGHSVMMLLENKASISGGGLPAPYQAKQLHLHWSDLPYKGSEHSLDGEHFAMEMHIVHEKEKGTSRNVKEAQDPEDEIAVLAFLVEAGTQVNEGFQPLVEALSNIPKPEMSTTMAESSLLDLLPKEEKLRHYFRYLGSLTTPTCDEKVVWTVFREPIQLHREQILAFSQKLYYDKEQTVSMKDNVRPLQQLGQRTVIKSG

[8] = molecular target: T8, human recombinant CAVI (Homo sapiens, UniProt P23280); set-up: method as in PMID 36271018; settings: FTSA, 37 °C, pH 7.0; cited from earlier work
T8 construct: Most isozymes were truncated, and only the catalytic domains of the proteins were produced; made in house; host or cells: bacterial expression system
T8 sequence (P23280 21-278 limits assumed): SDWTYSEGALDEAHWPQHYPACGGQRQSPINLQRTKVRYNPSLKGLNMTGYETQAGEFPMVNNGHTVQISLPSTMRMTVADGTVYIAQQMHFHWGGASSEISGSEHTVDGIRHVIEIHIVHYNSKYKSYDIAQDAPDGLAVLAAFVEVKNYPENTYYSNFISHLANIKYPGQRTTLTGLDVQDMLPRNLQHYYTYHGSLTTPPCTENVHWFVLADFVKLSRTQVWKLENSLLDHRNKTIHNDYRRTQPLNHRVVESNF

[9] = molecular target: T9, human recombinant CAIII (Homo sapiens, UniProt P07451); set-up: method as in PMID 36271018; settings: FTSA, 37 °C, pH 7.0; cited from earlier work
T9 construct: made in house; host or cells: bacterial expression system
T9 sequence (P07451 whole entry): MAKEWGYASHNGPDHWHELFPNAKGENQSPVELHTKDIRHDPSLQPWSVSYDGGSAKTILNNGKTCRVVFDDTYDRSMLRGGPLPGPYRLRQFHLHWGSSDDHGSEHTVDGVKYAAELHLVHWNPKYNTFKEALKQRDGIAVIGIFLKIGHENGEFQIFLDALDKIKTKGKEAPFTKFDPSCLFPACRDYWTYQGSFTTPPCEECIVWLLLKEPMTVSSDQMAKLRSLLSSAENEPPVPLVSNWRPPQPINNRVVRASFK

[10] = molecular target: T10, human recombinant CAXII (Homo sapiens, UniProt O43570); set-up: method as in PMID 36271018; settings: FTSA, 37 °C, pH 7.0; cited from earlier work
T10 construct: Most isozymes were truncated, and only the catalytic domains of the proteins were produced; made in house; host or cells: bacterial expression system
T10 sequence (O43570 30-289 limits assumed): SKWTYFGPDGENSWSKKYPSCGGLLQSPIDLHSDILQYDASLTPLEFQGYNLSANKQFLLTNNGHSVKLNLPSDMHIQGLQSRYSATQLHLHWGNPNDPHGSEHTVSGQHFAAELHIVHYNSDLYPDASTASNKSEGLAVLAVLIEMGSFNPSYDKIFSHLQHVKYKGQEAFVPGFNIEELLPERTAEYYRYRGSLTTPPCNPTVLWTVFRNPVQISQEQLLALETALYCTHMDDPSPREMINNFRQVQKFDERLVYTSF

Row | melting point [°C] | staining of HeLa cells (NIR fluorescence microscopy) [1] | SMILES | Kd [2] [nM] | Kd [3] [nM] | Kd [4] [nM] | Kd [5] [nM] | Kd [6] [nM] | Kd [7] [nM] | Kd [8] [nM] | Kd [9] [nM] | Kd [10] [nM]
1 | 225 to 228 | no visual response on transfected cells | CC1(C)C(/C=C/C2=C(Oc3ccc(CCC(=O)O)cc3)C(=C/C=C3\N(CCCCS(=O)(=O)[O-])c4ccccc4C3(C)C)/CCC2)=[N+](CCCCS(=O)(=O)[O-])c2ccccc21.[Na+] [GZ21-20, Sodium 4-((Z)-2-((E)-2-(2-(4-(2-Carboxyethyl)phenoxy)-3-((E)-2-(3,3-dimethyl-1-(4-sulfonatobutyl)-3H-indol-1-ium-2-yl)vinyl)cyclohex-2-en-1-ylidene)ethylidene)-3,3-dimethylindolin-1-yl)butane-1-sulfonate] | – | – | – | – | – | – | – | – | –
2 | 143 to 144 | – | NS(=O)(=O)c1c(F)c(F)c(S(=O)(=O)CCC(=O)O)c(NC2CCCCCCC2)c1F [GZ18-23, 3-((2-(Cyclooctylamino)-3,5,6-trifluoro-4-sulfamoylphenyl)sulfonyl)propanoic Acid] | 200 | 3 | 10000 | 200 | 40 | 100 | 100 | ≥ 200000 | 1.4
